Experimental data from PMC11506018, “Targeting PARP-1 and DNA Damage Response Defects in Colorectal Cancer Chemotherapy with Established and Novel PARP Inhibitors” (Cancers, 2024).
Where “and” joins values, the source holds several entries; their conditions need not be identical. Equal values may be shown once. Read-outs that look alike come from different tables or passages of the source.

What was measured:
DLD-1 WT cells = assay: cell viability, resazurin reduction assay, DLD-1 WT; conditions: for IC50: read-out: IC50-values DLD-1 WT
Method: (§1) To assess the cytotoxicity of newly developed PARP inhibitors, cells were cultivated in translucent 96-well plates overnight and treated with PARP inhibitors or cytostatic drugs for 72 h. […] Cell viability was assessed by the resazurin reduction assay (RRA) as described previously [41], and fluorescence was measured using a Spark® Multi-well reader (Tecan, Crailsheim, Germany). IC50 values were calculated using GraphPad Prism 9.0 software (GraphPad Software Inc., Boston, MA, USA). To this end, concentrations were transformed into the log scale, plotted against the cell viability and the curve was fitted by nonlinear regression with variable slope, providing the IC50 values.

HCT116 PARP-1+/+ cells = assay: cell viability, resazurin reduction assay, HCT116 PARP-1+/+; conditions: for IC50: read-out: IC50-values HCT116 PARP1+/+
Method: (§2) To assess the cytotoxicity of newly developed PARP inhibitors, cells were cultivated in translucent 96-well plates overnight and treated with PARP inhibitors or cytostatic drugs for 72 h. For the assessment of synergistic activity, cells were pretreated with the inhibitors for 2 h, before the inhibitor or cytostatic drug was added. Cell viability was assessed by the resazurin reduction assay (RRA) as described previously [41], and fluorescence was measured using a Spark® Multi-well reader (Tecan, Crailsheim, Germany). IC50 values were calculated using GraphPad Prism 9.0 software (GraphPad Software Inc., Boston, MA, USA). To this end, concentrations were transformed into the log scale, plotted against the cell viability and the curve was fitted by nonlinear regression with variable slope, providing the IC50 values.

HCT116 PARP-1−/− cells = assay: cell viability, resazurin reduction assay, HCT116 PARP-1-/-; conditions: for IC50: read-out: IC50-values HCT116 PARP1−/−; for higher sensitivity of HCT116 PARP-1−/− than PARP-1+/+: from IC50 values of Table 1
Method: as §2

DLD-1 ATRs/s cells = assay: cell viability, resazurin reduction assay, DLD-1 ATRs/s; conditions: for IC50: read-out: IC50-values DLD-1 ATRs/s
Method: as §1

Caco-2 cells = assay: cell viability, resazurin reduction assay, Caco-2; conditions: for IC50: Homo sapiens, read-out: IC50-values Caco-2
Method: as §2

HCT116 BRCA2−/− cells = assay: cell viability, resazurin reduction assay, HCT116 BRCA2-/-; conditions: for IC50: read-out: IC50-values HCT116 BRCA2−/−
Method: as §2

[1] = system: human colonic epithelial cells (HCEC); assay: cell viability, resazurin reduction assay, HCEC; conditions: 72 h; for IC50: read-out: IC50-values HCEC
Method: as §2

HCT116 WT cells = assay: cell viability, resazurin reduction assay, HCT116 WT; conditions: for IC50: read-out: IC50-values HCT116 WT
Method: as §1

[2] = system: γH2AX formation in HCT116 BRCA2−/− cells; assay: γH2AX Western blot in HCT116 BRCA2-/- cells; conditions: IT 0.25 µM, 24 h, compared to WT
Method: (§3) Quantification of chromatin-trapped PARP-1 was performed as described elsewhere [42]. Briefly, HCT116 cells were harvested, and pellets were lysed in buffer containing 150 mM KCl, 2.5 mM MgCl2, 50 mM HEPES pH 7.8, 5 mM EDTA pH 8, 3 mM dithiothreitol (DTT), 10% glycerol, 0.5% Triton X-100, and freshly added protease inhibitor cocktail (Roche) for 15 min on ice. The chromatin-bound protein fraction was isolated by centrifugation at 4 °C for 15 min and 16.000× g. After transferring the soluble fraction, the chromatin-containing pellet was washed twice in lysis buffer and sonicated for 3 min. […] The proteins of interest were detected using a c300 chemiluminescence imager (Azure Biosystems, Dublin, CA, USA). […] The signal intensity (e.g., PARP-1 or γH2AX) of each lane was quantified and subsequently normalized to the respective loading control as indicated in the figure legends, which was analyzed in each experiment. […]

[3] = system: γH2AX formation in HCT116 WT cells; assay: γH2AX Western blot in HCT116 WT cells; conditions: X17613 50 µM or IT 0.25 µM, 24 h
Method: Quantification of chromatin-trapped PARP-1 was performed as described elsewhere [42]. Briefly, HCT116 cells were harvested, and pellets were lysed in buffer containing 150 mM KCl, 2.5 mM MgCl2, 50 mM HEPES pH 7.8, 5 mM EDTA pH 8, 3 mM dithiothreitol (DTT), 10% glycerol, 0.5% Triton X-100, and freshly added protease inhibitor cocktail (Roche) for 15 min on ice. The chromatin-bound protein fraction was isolated by centrifugation at 4 °C for 15 min and 16.000× g. After transferring the soluble fraction, the chromatin-containing pellet was washed twice in lysis buffer and sonicated for 3 min. The soluble and chromatin fractions were mixed with self-made 5× Laemmli buffer (200 mM TRIS pH 6.8, 40% glycerol, 8% SDS, 4 % ß-mercaptoethanol, 0.08% Bromphenol Blue) and incubated at 95 °C for 10 min. Samples were then separated by SDS-PAGE followed by Western blot analysis essentially as described previously [43]. For the analysis of γH2AX, cells were directly harvested in 1× Laemmli buffer, incubated at 95 °C for 5 min, and subjected to SDS-PAGE and subsequent Western blot analysis [44]. […] The proteins of interest were detected using a c300 chemiluminescence imager (Azure Biosystems, Dublin, CA, USA). Densitometric image analysis was conducted by applying the software AzureSpot version 2.0.062 (Azure Biosystems, USA). The signal intensity (e.g., PARP-1 or γH2AX) of each lane was quantified and subsequently normalized to the respective loading control as indicated in the figure legends, which was analyzed in each experiment. […]

PARP-1 [4] = target: T1, PARP-1 (Homo sapiens, UniProt P09874); assay: chemiluminescence-based PARP-1 assay kit (recombinant enzyme); conditions: IC50 PARP-1 screening assay kit, recombinant PARP-1, 1 h RT, n = 2
Source text: Twelve compounds were screened regarding their ability to inhibit PARP-1 enzyme activity in vitro. Therefore, we utilized a chemiluminescence-based PARP-1 assay kit (BPS Bioscience, San Diego, CA, USA) and performed two independent experiments according to the manufacturer’s instructions. Briefly, non-transparent 96-well plates were coated with histones overnight. […] After adding activated DNA and biotinylated NAD^+, the ADP-ribosylation reaction was initiated by the addition of PARP-1 enzyme and incubated at RT for 1 h. Quantification of biotinylated PAR was conducted by using Streptavidin–HRP and subsequent ECL-based detection of chemiluminescence, applying a Spark® multiplate reader (Tecan, Crailsheim, Germany).

PARP-1 [5] = target: T1, PARP-1; assay: chromatin retention assay (PARP-1 trapping) in HCT116 cells; conditions: HCT116, MMS 1 mM 1 h with inhibitor
Method: as §3

PARP-1 [6] = target: T1, PARP-1; assay: chromatin retention assay (PARP-1 trapping) in Caco-2 cells; conditions: Caco-2, MMS 1 mM 1 h with inhibitor
Method: as §3

[7] = system: H2O2-induced PAR formation (PARP-1 activity) in HCT116 cells; assay: PAR immunofluorescence: H2O2-induced PAR formation in HCT116 cells; assay type: cell-based, human; conditions: for IC50: Homo sapiens, HCT-116, 2 h pretreatment, 1 mM H2O2 5 min, unit inferred, read-out: IC50 PAR formation in HCT116 cells (Figure A3A); for PAR signal: concentration of 100 nM; for PAR signal / PAR formation: H2O2-induced; for PAR formation: 10 µM / highest concentration
Method: Cells lines were re-authenticated by p53, PARP-1, ATR, and BRCA2 immunoblotting, by their characteristic differential response to genotoxic agents and their typical cell morphology. HCT116, HCT116 BRCA2^−/−, DLD-1 ATR^+/+ and DLD-1 ATR^s/s cells were maintained in DMEM, whereas HCT116 PARP-1^+/+ and HCT116 PARP-1^−/− cells were maintained in RPMI1640 containing 10% FCS and 1% penicillin/streptomycin in a humidified atmosphere at 37 °C and 5% CO2. Caco-2 cells were cultured in MEM with 10% FCS, 1% penicillin/streptomycin, and nonessential amino acids. […] The media and supplements were obtained from PAN-Biotech (Aidenbach, Germany) and Thermo Fisher Scientific (Darmstadt, Germany). Cell culture was frequently tested for contamination with mycoplasma by PCR using the Venor® GeM Classic kit (Minerva Biolabs, Berlin, Germany) and immunofluorescence microscopy with nuclear staining. […] Cells were exposed for 1 h for the quantification of PARP-1 trapping or 2 h for assessing the inhibitory potential by confocal fluorescence microscopy. […] If the PARPi treatment was conducted in combination with cytostatic drugs for 24 h (γH2AX Western blot analysis) or 72 h (cytotoxicity testing), the PARPi was added 2 h prior.
The activity of potential PARP inhibitors was tested in a cell model using immunofluorescence-based detection of PAR essentially as reported previously. HCT116 cells were seeded in Ibidi 12-well chamber slides and cultivated until they reached 70% confluence. Induction of PARylation was achieved by adding 1 mM H2O2 in PBS/1 mM MgCl2 for 5 min at 37 °C. Cells were washed with PBS/1 mM MgCl2 and fixed by adding 4% PFA at RT. After 20 min, cells were washed with PBS/100 mM glycine for 1 min and permeabilized with PBS/0.3% Triton X-100 for 3 min. Blocking of the cells was conducted by adding PBS/0.05% Tween containing 5% powdered milk for 1 h at RT. […] Cells were washed and an Alexa488-coupled secondary antibody was added for 1 h at RT. The slides were mounted with VectaShield containing DAPI and analyzed by confocal microscopy using a Zeiss Axio Observer 7 microscope (Oberkochen, Germany) equipped with a 63× oil objective (Plan-Apochromat 63×/1.40 DIC M27) and a LSM900 confocal laser scanner (Zeiss, Oberkochen, Germany). Images were analyzed using Zeiss Zen software version 3.4 and ImageJ v1.53t (NIH, Bethesda, MD, USA). Briefly, nuclei were identified based on the DAPI signal and marked as regions of interest (ROI). Subsequently, the mean PAR signal in the identified ROI was quantified in each image and exported for further analysis. For the individual experiments, the mean PAR intensity was averaged for each treatment group and the control was set to 100%. Only images with a minimum of 4 cells were included in the analysis and at least 5 images were assessed per treatment group. The experiments were conducted in at least 3 biological replicates. To derive IC50 concentrations, relative PAR levels of the experiments were transferred to GraphPad Prism 9.0 Software (GraphPad Software Inc., Boston, MA, USA) for a nonlinear regression analysis applying a three-parameter model.

T1 sequence (P09874 whole entry): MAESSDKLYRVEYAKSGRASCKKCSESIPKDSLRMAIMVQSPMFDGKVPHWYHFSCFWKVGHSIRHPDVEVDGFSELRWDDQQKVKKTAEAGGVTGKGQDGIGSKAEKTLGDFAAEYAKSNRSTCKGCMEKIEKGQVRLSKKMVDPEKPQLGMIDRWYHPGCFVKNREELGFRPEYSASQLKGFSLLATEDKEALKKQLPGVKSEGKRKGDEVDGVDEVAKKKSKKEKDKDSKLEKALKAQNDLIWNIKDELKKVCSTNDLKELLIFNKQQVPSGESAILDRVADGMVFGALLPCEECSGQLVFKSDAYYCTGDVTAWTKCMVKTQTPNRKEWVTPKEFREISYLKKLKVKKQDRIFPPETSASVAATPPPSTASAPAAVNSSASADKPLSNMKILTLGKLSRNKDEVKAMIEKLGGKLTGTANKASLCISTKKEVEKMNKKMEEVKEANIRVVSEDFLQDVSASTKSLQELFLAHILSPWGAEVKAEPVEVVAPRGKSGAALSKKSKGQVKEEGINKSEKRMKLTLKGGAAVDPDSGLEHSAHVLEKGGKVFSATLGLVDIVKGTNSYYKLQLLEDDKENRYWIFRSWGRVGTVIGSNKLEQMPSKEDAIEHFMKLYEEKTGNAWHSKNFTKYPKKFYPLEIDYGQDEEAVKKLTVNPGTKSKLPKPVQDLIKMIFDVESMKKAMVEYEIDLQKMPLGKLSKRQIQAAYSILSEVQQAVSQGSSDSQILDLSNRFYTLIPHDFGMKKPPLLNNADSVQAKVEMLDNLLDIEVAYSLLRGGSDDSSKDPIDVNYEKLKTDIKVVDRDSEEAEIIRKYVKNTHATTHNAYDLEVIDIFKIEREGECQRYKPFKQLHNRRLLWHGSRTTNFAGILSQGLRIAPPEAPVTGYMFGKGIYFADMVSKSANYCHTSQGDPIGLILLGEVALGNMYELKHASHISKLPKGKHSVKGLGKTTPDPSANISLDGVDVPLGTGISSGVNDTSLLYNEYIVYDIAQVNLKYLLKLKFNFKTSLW

Structure (SMILES): O=c1[nH]cc(F)c(=O)[nH]1 [5-FU, 5-fluorouracil]
- IC50 (DLD-1 WT cells; Homo sapiens, DLD-1, 72 h): 350 nM
- IC50 (HCT116 PARP-1+/+ cells; Homo sapiens, HCT-116, 72 h): 240 nM
- IC50 (HCT116 PARP-1−/− cells; Homo sapiens, HCT-116, 72 h): 150 nM
- higher sensitivity of HCT116 PARP-1−/− than PARP-1+/+ (HCT116 PARP-1−/− cells): less affected
- IC50 (DLD-1 ATRs/s cells; Homo sapiens, DLD-1, 72 h): 220 nM
- IC50-values Caco-2 (Caco-2 cells; 72 h, RRA): -
- IC50 (HCT116 BRCA2−/− cells; Homo sapiens, HCT-116, 72 h): 340 nM
- IC50 ([1]; Homo sapiens, HCEC): 26200 nM
- IC50 (HCT116 WT cells; Homo sapiens, HCT-116, 72 h): 500 nM

Structure (SMILES): CCc1c2c(nc3ccc(OC(=O)N4CCC(N5CCCCC5)CC4)cc13)-c1cc3c(c(=O)n1C2)COC(=O)[C@]3(O)CC [IT, irinotecan]
- IC50 (DLD-1 WT cells; Homo sapiens, DLD-1, 72 h): 4190 nM
- γH2AX, mono-treatment [2]: slightly higher γH2AX levels
- IC50 (HCT116 PARP-1+/+ cells; Homo sapiens, HCT-116, 72 h): 930 nM
- IC50 (HCT116 PARP-1−/− cells; Homo sapiens, HCT-116, 72 h): 350 nM
- higher sensitivity of HCT116 PARP-1−/− than PARP-1+/+ (HCT116 PARP-1−/− cells): 2.5–3 fold
- γH2AX, mono-treatment [3]: significant induction of γH2AX
- IC50 (DLD-1 ATRs/s cells; Homo sapiens, DLD-1, 72 h): 2990 nM
- IC50 (Caco-2 cells; Caco-2, 72 h): 66500 nM
- IC50 (HCT116 BRCA2−/− cells; Homo sapiens, HCT-116, 72 h): 160 nM
- IC50 ([1]; Homo sapiens, HCEC): 2950 nM
- IC50 (HCT116 WT cells; Homo sapiens, HCT-116, 72 h): 1280 nM

Structure (SMILES): O=C1[O][Pt]2([NH][C@@H]3CCCC[C@H]3[NH]2)[O]C1=O [OXA, oxaliplatin]
- IC50 (DLD-1 WT cells; 72 h, RRA): 8770 nM
- IC50 (HCT116 PARP-1+/+ cells; 72 h, RRA): 710 nM
- higher sensitivity of HCT116 PARP-1−/− than PARP-1+/+ (HCT116 PARP-1−/− cells): 2.5–3 fold
- IC50 (HCT116 PARP-1−/− cells; 72 h, RRA): 280 nM
- IC50 (DLD-1 ATRs/s cells; 72 h, RRA): 9080 nM
- IC50 (HCT116 BRCA2−/− cells; 72 h, RRA): 250 nM
- IC50 ([1]; RRA): 40700 nM
- IC50 (HCT116 WT cells; 72 h, RRA): 1190 nM

Structure (SMILES): COC(=O)C1CC(=O)c2cccc3[nH]c(C)c1c23 (centres unmarked) [X17616]
- IC50 (PARP-1 [4]): 9200 nM and 9170 nM

Structure (SMILES): CNC(=O)C1CC(=O)c2cccc3[nH]c(C)c1c23 (centres unmarked) [X17618, N,2-dimethyl-5-oxo-1,3,4,5-tetrahydrobenzo[cd]indole-3-carboxamide]
- cell viability, monotreatment (DLD-1 WT cells; DLD-1 WT, 72 h): no effects
- IC50 (DLD-1 WT cells; Homo sapiens, DLD-1, 72 h): > 50000 nM
- IC50 (PARP-1 [4]): 2840 nM
- cell viability, monotreatment (HCT116 PARP-1+/+ cells; HCT116 PARP-1+/+, 72 h, up to 50 µM): Neither X17613 nor X17618 decreased cell viability
- cell viability in combination with cytostatics (HCT116 PARP-1+/+ cells; HCT116 PARP-1+/+, IT 0.5 µM, 5-FU 0.25 µM, OXA 0.5 µM, 72 h, PARPi added 2 h prior): did not affect the cytotoxicity of the anticancer drugs
- IC50 (HCT116 PARP-1+/+ cells; Homo sapiens, HCT-116, 72 h): > 50000 nM
- chromatin-bound PARP-1 (PARP-1 trapping) (PARP-1 [5]): No enrichment of PARP-1 in the chromatin fraction
- PARP-1 trapping (PARP-1 [6]): no effects were detected
- cell viability, monotreatment (HCT116 PARP-1−/− cells; HCT116 PARP-1−/−, 72 h, up to 50 µM): Neither X17613 nor X17618 decreased cell viability
- cell viability in combination with cytostatics (HCT116 PARP-1−/− cells; HCT116 PARP-1−/−, IT 0.5 µM, 5-FU 0.25 µM, OXA 0.5 µM, 72 h, PARPi added 2 h prior): did not affect the cytotoxicity of the anticancer drugs
- IC50 (HCT116 PARP-1−/− cells; Homo sapiens, HCT-116, 72 h): > 50000 nM
- cell viability, monotreatment (DLD-1 ATRs/s cells; DLD-1 ATRs/s, 72 h): no effects
- IC50 (DLD-1 ATRs/s cells; Homo sapiens, DLD-1, 72 h): > 50000 nM
- cell viability, monotreatment (Caco-2 cells; Caco-2, 72 h, up to 50 µM): no impact on cell viability at all
- sensitization towards the anticancer drugs (Caco-2 cells; Caco-2, IT 10 µM, 5-FU 5 µM, OXA 1 µM): no sensitization towards the anticancer drugs
- IC50 (Caco-2 cells; Caco-2, 72 h): > 50000 nM
- decrease of viability (HCT116 BRCA2−/− cells; HCT116 BRCA2−/−, highest test concentration of 50 µM, 72 h): about 25%
- IC50 (HCT116 BRCA2−/− cells; Homo sapiens, HCT-116, 72 h): > 50000 nM
- IC50 [7]: 5.38 nM
- PAR signal [7]: significant decrease in the PAR signal
- IC50 ([1]; Homo sapiens, HCEC): > 50000 nM
- cell viability, monotreatment ([1]; nonmalignant HCEC, up to 50 µM): no effect on HCEC
- cell viability, monotreatment (HCT116 WT cells; HCT116 WT, 72 h, up to 50 µM): no impact
- IC50 (HCT116 WT cells; Homo sapiens, HCT-116, 72 h): > 50000 nM

Structure (SMILES): Cc1[nH]c2cccc3c2c1C(C(=O)NCc1ccco1)CC3=O (centres unmarked) [X17620, N-(furan-2-ylmethyl)-2-methyl-5-oxo-1,3,4,5-tetrahydrobenzo[cd]indole-3-carboxamide]
- IC50 (PARP-1 [4]): 482 nM
- PAR formation [7]: no effect on PAR formation

Structure (SMILES): Cc1[nH]c2cccc3c2c1C(C(=O)N1CCOCC1)CC3=O (centres unmarked) [X17621, 2-methyl-3-(morpholine-4-carbonyl)-3,4-dihydrobenzo[cd]indol-5(1H)-one]
- IC50 (PARP-1 [4]): 1630 nM
- PAR formation [7]: did not entirely inhibit PAR formation
- IC50 [7]: 16.7 nM
- PAR signal [7]: significant decrease in the PAR signal
